According to publication PMC4410398, “Influence of Drug Resistance Mutations on the Activity of HIV-1 Subtypes A and B Integrases: a Comparative Study” (Acta Naturae, 2015):

Experiments:
[1] = tested on: HIV-1 subtype CRF02_A/G isolate carrying a G118R substitution in the IN gene; design: method as in PMID 24710029; conditions: HIV-1 subtype CRF02_A/G isolate carrying G118R in the IN gene; cited from earlier work
[2] = tested on: HIV-1 subtype B (clone pNL4-3) carrying G118R; design: method as in PMID 24710029; conditions: cited from earlier work
INA G140S = INA G140S (Human immunodeficiency virus type 1 group M subtype A, UniProt P24740, G1280S/S1259P); format: biochemical, HIV-1 subtype A strain FSU-A
INB G118R = target: T1, INB G118R (Human immunodeficiency virus type 1 group M subtype B, UniProt P04585, G1265R); assay: Inhibition of homologous strand transfer reaction, INB G118R; format: biochemical, HIV-1 subtype B strain HXB-2
T1 construct: The viral enzyme integrase (IN), which catalyzes the integration; His6 (N); made in house; host or cells: Escherichia coli Rosetta (DE3), pET-15b

INB G118R/E138K = target: T2, INB G118R/E138K (Human immunodeficiency virus type 1 group M subtype B, UniProt P04585, E1285K/G1265R); assay: Inhibition of homologous strand transfer reaction, INB G118R/E138K; format: biochemical, HIV-1 subtype B strain HXB-2
T2 construct: The viral enzyme integrase (IN), which catalyzes the integration; His6 (N); made in house; host or cells: Escherichia coli Rosetta (DE3), pET-15b

INB E138K/Q148K = target: T3, INB E138K/Q148K (Human immunodeficiency virus type 1 group M subtype B, UniProt P04585, E1285K/Q1295K); assay: Inhibition of homologous strand transfer reaction, INB E138K/Q148K; format: biochemical, HIV-1 subtype B strain HXB-2
T3 construct: The viral enzyme integrase (IN), which catalyzes the integration; His6 (N); made in house; host or cells: Escherichia coli Rosetta (DE3), pET-15b

INB = tested on: INB; design: method as in PMID 23075516; conditions: literature value for INB; cited from earlier work
INB E138K = target: T4, INB E138K (Human immunodeficiency virus type 1 group M subtype B, UniProt P04585, E1285K); assay: Inhibition of homologous strand transfer reaction, INB E138K; format: biochemical, HIV-1 subtype B strain HXB-2
T4 construct: The viral enzyme integrase (IN), which catalyzes the integration; His6 (N); made in house; host or cells: Escherichia coli Rosetta (DE3), pET-15b

INA E138K/Q148K = INA E138K/Q148K (Human immunodeficiency virus type 1 group M subtype A, UniProt P24740, E1278K/Q1288K/S1259P); format: biochemical, HIV-1 subtype A strain FSU-A
INA G140S/Q148K = INA G140S/Q148K (Human immunodeficiency virus type 1 group M subtype A, UniProt P24740, G1280S/Q1288K/S1259P); format: biochemical, HIV-1 subtype A strain FSU-A
INB Q148K = target: T5, INB Q148K (Human immunodeficiency virus type 1 group M subtype B, UniProt P04585, Q1295K); assay: Inhibition of homologous strand transfer reaction, INB Q148K; format: biochemical, HIV-1 subtype B strain HXB-2
T5 construct: The viral enzyme integrase (IN), which catalyzes the integration; His6 (N); made in house; host or cells: Escherichia coli Rosetta (DE3), pET-15b

[3] = target: T6, INB (integrase of HIV-1 subtype B strain HXB-2), wild type (Human immunodeficiency virus type 1 group M subtype B, UniProt P04585); format: biochemical
T6 construct: The viral enzyme integrase (IN), which catalyzes the integration; His6 (N); made in house; host or cells: Escherichia coli Rosetta (DE3), pET-15b

[4] = target: INA (consensus integrase of HIV-1 subtype A strain FSU-A), wild type (Human immunodeficiency virus type 1 group M subtype A, UniProt P24740, S1259P); format: biochemical
INA G118R/E138K = INA G118R/E138K (Human immunodeficiency virus type 1 group M subtype A, UniProt P24740, E1278K/G1258R/S1259P); format: biochemical, HIV-1 subtype A strain FSU-A
INB G140S/Q148K = target: T7, INB G140S/Q148K (Human immunodeficiency virus type 1 group M subtype B, UniProt P04585, G1287S/Q1295K); assay: Inhibition of homologous strand transfer reaction, INB G140S/Q148K; format: biochemical, HIV-1 subtype B strain HXB-2
T7 construct: The viral enzyme integrase (IN), which catalyzes the integration; His6 (N); made in house; host or cells: Escherichia coli Rosetta (DE3), pET-15b

INB G140S = target: T8, INB G140S (Human immunodeficiency virus type 1 group M subtype B, UniProt P04585, G1287S); assay: Inhibition of homologous strand transfer reaction, INB G140S; format: biochemical, HIV-1 subtype B strain HXB-2
T8 construct: The viral enzyme integrase (IN), which catalyzes the integration; His6 (N); made in house; host or cells: Escherichia coli Rosetta (DE3), pET-15b

INA E138K = INA E138K (Human immunodeficiency virus type 1 group M subtype A, UniProt P24740, E1278K/S1259P); format: biochemical, HIV-1 subtype A strain FSU-A
INA Q148K = INA Q148K (Human immunodeficiency virus type 1 group M subtype A, UniProt P24740, Q1288K/S1259P); format: biochemical, HIV-1 subtype A strain FSU-A
INA G118R = INA G118R (Human immunodeficiency virus type 1 group M subtype A, UniProt P24740, G1258R/S1259P); format: biochemical, HIV-1 subtype A strain FSU-A
[5] = homologous strand transfer, 2 h, 100 nM IN, read-out: Inhibitory activity, IC50

## C[C@@H]1CCO[C@H]2Cn3cc(C(=O)NCc4ccc(F)cc4F)c(=O)c(O)c3C(=O)N12 [DTG, dolutegravir]
[1]
  FC (resistance): > 100
[2]
  FC (resistance): 10

## CN(C)S(=O)(=O)c1cc(O)c(O)c2c1CN(Cc1ccc(F)c(Cl)c1)C2=O [XZ-259]
INA G140S
  ratio of IC50 for mutants over wt (FC): 3.8
INA G140S; [5]
  IC50: 150 ± 50 nM
INB G118R
  ratio of IC50 for mutants over wt (FC): 1.2
INB G118R; [5]
  IC50: 80 ± 20 nM
INB G118R/E138K
  ratio of IC50 for mutants over wt (FC): 1.2
INB G118R/E138K; [5]
  IC50: 80 ± 15 nM
INB E138K/Q148K
  ratio of IC50 for mutants over wt (FC): 7.7
INB E138K/Q148K; [5]
  IC50: 500 ± 200 nM
INB
  IC50: 77 nM
INB E138K
  ratio of IC50 for mutants over wt (FC): 1
INB E138K; [5]
  IC50: 70 ± 10 nM
INA E138K/Q148K
  ratio of IC50 for mutants over wt (FC): 5
INA E138K/Q148K; [5]
  IC50: 200 ± 50 nM
INA G140S/Q148K
  ratio of IC50 for mutants over wt (FC): 15
INA G140S/Q148K; [5]
  IC50: 600 ± 150 nM
INB Q148K
  ratio of IC50 for mutants over wt (FC): 9.2
INB Q148K; [5]
  IC50: 600 ± 100 nM
[3]
  ratio of IC50 for mutants over wt (FC): 1
[3]; [5]
  IC50: 65 ± 10 nM
[4]
  ratio of IC50 for mutants over wt (FC): 1
[4]; [5]
  IC50: 40 ± 15 nM
INA G118R/E138K
  ratio of IC50 for mutants over wt (FC): 0.75
INA G118R/E138K; [5]
  IC50: 30 ± 10 nM
INB G140S/Q148K
  ratio of IC50 for mutants over wt (FC): 13
INB G140S/Q148K; [5]
  IC50: 850 ± 100 nM
INB G140S
  ratio of IC50 for mutants over wt (FC): 2.3
INB G140S; [5]
  IC50: 150 ± 50 nM
INA E138K
  ratio of IC50 for mutants over wt (FC): 1.25
INA E138K; [5]
  IC50: 50 ± 15 nM
INA Q148K
  ratio of IC50 for mutants over wt (FC): 8.8
INA Q148K; [5]
  IC50: 350 ± 100 nM
INA G118R
  ratio of IC50 for mutants over wt (FC): 1
INA G118R; [5]
  IC50: 40 ± 10 nM
